Test results as given in article PMC7926640, “Synthesis, Neuroprotection, and Antioxidant Activity of 1,1′-Biphenylnitrones as α-Phenyl-N-tert-butylnitrone Analogues in In Vitro Ischemia Models” (Molecules, 2021).

Target: T1, soybean lipoxygenase (LOX) (Glycine max, UniProt P08170)
T1 construct: gene LOX1.1
T1 sequence (P08170 1-839): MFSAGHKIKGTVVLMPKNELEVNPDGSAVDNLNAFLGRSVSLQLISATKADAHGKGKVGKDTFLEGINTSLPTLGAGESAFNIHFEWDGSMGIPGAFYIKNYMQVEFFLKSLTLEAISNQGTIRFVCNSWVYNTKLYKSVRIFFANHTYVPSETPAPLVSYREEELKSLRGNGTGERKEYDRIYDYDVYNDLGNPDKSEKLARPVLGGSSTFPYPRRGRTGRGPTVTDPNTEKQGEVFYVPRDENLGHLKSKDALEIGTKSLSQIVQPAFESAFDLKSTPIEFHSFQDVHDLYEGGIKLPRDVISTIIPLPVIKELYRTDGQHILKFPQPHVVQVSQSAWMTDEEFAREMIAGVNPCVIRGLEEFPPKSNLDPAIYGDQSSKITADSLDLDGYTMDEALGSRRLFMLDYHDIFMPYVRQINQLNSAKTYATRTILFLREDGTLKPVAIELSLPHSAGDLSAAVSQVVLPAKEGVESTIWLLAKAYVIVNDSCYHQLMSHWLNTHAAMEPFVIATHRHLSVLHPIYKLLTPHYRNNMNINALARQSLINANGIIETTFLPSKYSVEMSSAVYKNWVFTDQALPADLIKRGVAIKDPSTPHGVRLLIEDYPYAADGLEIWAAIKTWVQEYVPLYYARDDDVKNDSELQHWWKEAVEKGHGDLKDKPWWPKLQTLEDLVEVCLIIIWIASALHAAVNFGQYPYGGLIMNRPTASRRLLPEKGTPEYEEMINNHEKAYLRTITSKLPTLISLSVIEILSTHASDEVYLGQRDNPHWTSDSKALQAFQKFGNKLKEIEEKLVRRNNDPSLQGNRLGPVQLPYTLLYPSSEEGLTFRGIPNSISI
Test: soybean LOX inhibition, linoleate oxidation monitored at […] nm
Type: biochemical

[O-]/[N+](=C\c1ccc(-c2ccccc2)cc1)Cc1ccccc1 [compound 3, (Z)-1-([1,1′-Biphenyl]-4-yl)-N-benzylmethanimine oxide]
IC50: 57.5 µM

CC(C)(C)/[N+]([O-])=C/c1ccc(-c2ccc(/C=[N+](\[O-])C(C)(C)C)cc2)cc1 [compound 5, (1Z,1′Z)-1,1′-([1,1′-Biphenyl]-4,4′-diyl)bis(N-tert-butylmethanimineoxide)]
IC50: 100 µM

C/[N+]([O-])=C/c1ccc(-c2ccccc2)cc1 [compound 1, (Z)-1-([1,1′-Biphenyl]-4-yl)-N-methylmethanimine oxide]
IC50: 100 µM
